Measurements from patent EP4707392A1, “DOUBLE-STRANDED OLIGONUCLEOTIDE, CONJUGATE THEREOF, AND USE THEREOF” (priority 2023, dated 2024).

Experiments:
[1] = tested on: coagulation factor XI (Factor XI, FXI) mRNA; test: In vitro inhibitory activity of siRNA conjugates modified with TOM against FXI mRNA, free uptake by mouse primary hepatocytes (Example 6); assay type: cell-based
Protocol: The inhibitory activities of the siRNA conjugates modified with TOM at different sites of an antisense strand against a target gene FXI in mouse primary hepatocytes were evaluated by the same experimental method as that in Example 4. Differences lie in that the siRNA conjugates modified with TOM at different sites of an antisense strand were used in the present example to replace the siRNA conjugates used in Example 4, and that target gene FXI detection primers listed in Table 13 were used in the present example to replace target gene detection primers used in Example 4. Relative quantitative calculation was performed for the target gene mRNA in various test groups by the preceding ΔΔCt method.

CC3 mRNA = test: Inhibitory activity of siRNAs modified with MOE at different sites against CC3 mRNA in HepG2 cells (Example 8); assay type: cell-based, human; settings: MOE at a single site
Protocol: In vitro activities of siRNA compounds, such as RX502165 modified with MOE at different sites of a sense strand and RX502172 modified with MOE at different sites of an antisense strand, and a reference compound RX502001 without MOE modification on HepG2 cells were evaluated using the same experimental method as that in Example 2. A difference lies in that the siRNA compounds modified with MOE at different sites of the sense and antisense strands were used in the present example to replace the siRNA compounds used in Example 2. Relative quantitative calculation was performed for the target gene mRNA in various test groups by the preceding ΔΔCt method.

Substance: RZ594004: siRNA conjugate, SEQ ID NOs 341/342 (chain 1 GUACGUGGACUGGAUUCUG; chain 2 CAGAATCCAGTCCACGTACTT; siRNA conjugate, conjugate and pattern not given here)
- in vitro activity compared with the reference sequence (RZ594001) without TOM modification [1]: conducive to enhancing in vitro activity

Substance: RZ594005: siRNA conjugate, SEQ ID NOs 343/344 (chain 1 GUACGUGGACUGGAUUCUG; chain 2 CAGAATCCAGTCCACGTACTT; siRNA conjugate, conjugate and pattern not given here)
- in vitro activity compared with the reference sequence (RZ594001) without TOM modification [1]: conducive to enhancing in vitro activity

Substance: RZ594006: siRNA conjugate, SEQ ID NOs 345/346 (chain 1 GUACGUGGACUGGAUUCUG; chain 2 CAGAATCCAGTCCACGTACTT; siRNA conjugate, conjugate and pattern not given here)
- in vitro activity compared with the reference sequence (RZ594001) without TOM modification [1]: conducive to enhancing in vitro activity

Substance: RZ594008: siRNA conjugate, SEQ ID NOs 293/294 (chain 1 GUACGUGGACUGGAUUCUG; chain 2 CAGAATCCAGTCCACGTACTT; siRNA conjugate, conjugate and pattern not given here)
- in vitro activity compared with the reference sequence (RZ594001) without TOM modification [1]: significantly weakened the in vitro activity

Substance: RZ594009: siRNA conjugate, SEQ ID NOs 295/296 (chain 1 GUACGUGGACUGGAUUCUG; chain 2 CAGAATCCAGTCCACGTACTT; siRNA conjugate, conjugate and pattern not given here)
- in vitro activity compared with the reference sequence (RZ594001) without TOM modification [1]: significantly weakened the in vitro activity

Substance: RZ594011: siRNA conjugate, SEQ ID NOs 299/300 (chain 1 GUACGUGGACUGGAUUCUG; chain 2 CAGAATCCAGTCCACGTACTT; siRNA conjugate, conjugate and pattern not given here)
- in vitro activity compared with the reference sequence (RZ594001) without TOM modification [1]: conducive to enhancing in vitro activity
- in vitro activity compared with the reference sequence (RX502001) without MOE modification (CC3 mRNA): conducive to elevating the in vitro activity

Substance: RZ594012: siRNA conjugate, SEQ ID NOs 301/302 (chain 1 GUACGUGGACUGGAUUCUG; chain 2 CAGAATCCAGTCCACGTACTT; siRNA conjugate, conjugate and pattern not given here)
- in vitro activity compared with the reference sequence (RZ594001) without TOM modification [1]: conducive to enhancing in vitro activity

Substance: RZ594013: siRNA conjugate, SEQ ID NOs 303/304 (chain 1 GUACGUGGACUGGAUUCUG; chain 2 CAGAATCCAGTCCACGTACTT; siRNA conjugate, conjugate and pattern not given here)
- in vitro activity compared with the reference sequence (RZ594001) without TOM modification [1]: significantly weakened the in vitro activity

Substance: RZ594014: siRNA conjugate, SEQ ID NOs 305/306 (chain 1 GUACGUGGACUGGAUUCUG; chain 2 CAGAATCCAGTCCACGTACTT; siRNA conjugate, conjugate and pattern not given here)
- in vitro activity compared with the reference sequence (RZ594001) without TOM modification [1]: significantly weakened the in vitro activity

Substance: RZ594015: siRNA conjugate, SEQ ID NOs 307/308 (chain 1 GUACGUGGACUGGAUUCUG; chain 2 CAGAATCCAGTCCACGTACTT; siRNA conjugate, conjugate and pattern not given here)
- in vitro activity compared with the reference sequence (RZ594001) without TOM modification [1]: significantly weakened the in vitro activity

Substance: RZ594016: siRNA conjugate, SEQ ID NOs 309/310 (chain 1 GUACGUGGACUGGAUUCUG; chain 2 CAGAATCCAGTCCACGTACTT; siRNA conjugate, conjugate and pattern not given here)
- in vitro activity compared with the reference sequence (RZ594001) without TOM modification [1]: significantly weakened the in vitro activity

Substance: RZ594018: siRNA conjugate, SEQ ID NOs 313/314 (chain 1 GUACGUGGACUGGAUUCUG; chain 2 CAGAATCCAGTCCACGTACTT; siRNA conjugate, conjugate and pattern not given here)
- in vitro activity compared with the reference sequence (RZ594001) without TOM modification [1]: conducive to enhancing in vitro activity

Substance: RZ594019: siRNA conjugate, SEQ ID NOs 315/316 (chain 1 GUACGUGGACUGGAUUCUG; chain 2 CAGAATCCAGTCCACGTACTT; siRNA conjugate, conjugate and pattern not given here)
- in vitro activity compared with the reference sequence (RZ594001) without TOM modification [1]: conducive to enhancing in vitro activity

Substance: RZ594024: siRNA conjugate, SEQ ID NOs 325/326 (chain 1 GUACGUGGACUGGAUUCUG; chain 2 CAGAATCCAGTCCACGTACTT; siRNA conjugate, conjugate and pattern not given here)
- in vitro activity compared with the reference sequence (RZ594001) without TOM modification [1]: conducive to enhancing in vitro activity

Substance: RZ594025: siRNA conjugate, SEQ ID NOs 327/328 (chain 1 GUACGUGGACUGGAUUCUG; chain 2 CAGAATCCAGTCCACGTACTT; siRNA conjugate, conjugate and pattern not given here)
- in vitro activity compared with the reference sequence (RZ594001) without TOM modification [1]: conducive to enhancing in vitro activity

Substance: RZ594030: siRNA conjugate, SEQ ID NOs 347/348 (chain 1 GUACGUGGACUGGAUUCUG; chain 2 CAGAATCCAGTCCACGTACTT; siRNA conjugate, conjugate and pattern not given here)
- in vitro activity compared with the reference sequence (RZ594001) without TOM modification [1]: conducive to enhancing in vitro activity

Substance: RZ594035: siRNA conjugate, SEQ ID NOs 357/358 (chain 1 GUACGUGGACUGGAUUCUG; chain 2 CAGAATCCAGTCCACGTACTT; siRNA conjugate, conjugate and pattern not given here)
- in vitro activity compared with the reference sequence (RZ594001) without TOM modification [1]: conducive to enhancing in vitro activity

Substance: RZ594040: siRNA conjugate, SEQ ID NOs 367/368 (chain 1 GUACGUGGACUGGAUUCUG; chain 2 CAGAATCCAGTCCACGTACTT; siRNA conjugate, conjugate and pattern not given here)
- in vitro activity compared with the reference sequence (RZ594001) without TOM modification [1]: conducive to enhancing in vitro activity

Substance: RZ594041: siRNA conjugate, SEQ ID NOs 369/370 (chain 1 GUACGUGGACUGGAUUCUG; chain 2 CAGAATCCAGTCCACGTACTT; siRNA conjugate, conjugate and pattern not given here)
- in vitro activity compared with the reference sequence (RZ594001) without TOM modification [1]: conducive to enhancing in vitro activity
